Assay results as given in article PMC6385645 (Chemical Science, 2018).
Ends that are not written are not given here. Peptide text beside a SMILES is read from it. * marks the point of attachment. X1 = Nc1ncnc2c1ncn2[C@@H]1O[C@H](COP(=O)(O)NC(=O)[C@H](CC(=O)O)N*)[C@@H](O)[C@H]1O; For = O=C*

Legend:
YejABEF importer = details: 4 vs the peptide lacking the N-formyl moiety 3; cited from earlier work
wild type MccB = assay: Competition FP binding assay, wild type MccB, fMccA-FITC probe; parameters: species or system E. coli; details: even at concentrations greater than 5 mM
MccB = assay: PNP-coupled Michaelis–Menten kinetics of MccB; details: wild-type MccB

displacement of bound FITC-labeled N-formylated 2 (wild type MccB) | Compound | substrate quality for YejABEF importer (YejABEF importer) | substrate inhibition of MccB (MccB)
– | CSCC[C@H](NC=O)C(=O)N[C@@H](CCCNC(=N)N)C(=O)N[C@H](C(=O)NCC(=O)N[C@@H](CC(N)=O)C(=O)N[C@@H](C)C(=O)N[C@@H](CC(=O)O)C(=O)NP(=O)(O)OC[C@H]1O[C@@H](n2cnc3c(N)ncnc32)[C@H](O)[C@@H]1O)[C@@H](C)O [compound 4] (For-MRTGNA-X1) | significantly better substrate | –
could not displace | MRTGNAN [compound 1] | – | but not with the desformyl 1 peptide
